In ChEMBL document CHEMBL5143515, “Identification of new halogen-containing 2,4-diphenyl indenopyridin-5-one derivative as a boosting agent for the anticancer responses of clinically available topoisomerase inhibitors” (Eur J Med Chem, 2022) one finds IC50 and inhibition data, which are given here for 21 compounds.

For orientation: IC50 means the point on the concentration scale where inhibition reaches its midpoint. As usually defined, the inhibition is the drop in the measured response relative to a control, in per cent.

The structures appear in SMILES notation. Structures can show the parent of a compound that is named as a salt. Some results are limits rather than exact numbers.

One experiment has as its system HeLa. Description: Antiproliferative activity against human HeLa cells after 72 hrs by EZ-Cytox colorimetric assay. It is filed as functional, cell-based.
Another experiment has as its system HCT-15. The experiment in a line: Antiproliferative activity against human HCT-15 cells after 72 hrs by EZ-Cytox colorimetric assay. The following applies: HCT-15, 72 h. Format: functional, cell-based.
In experiment [1] the target is DNA topoisomerase 2-alpha (Homo sapiens) (UniProt P11388). The experiment in a line: Inhibition of recombinant human topoisomerase 2alpha assessed as relaxation of supercoiled plasmid pBR322 DNA at 100 uM by agarose gel electrophoresis (reference value: […]%).
DNA topoisomerase 2-alpha (Homo sapiens), sequence (P11388 whole entry): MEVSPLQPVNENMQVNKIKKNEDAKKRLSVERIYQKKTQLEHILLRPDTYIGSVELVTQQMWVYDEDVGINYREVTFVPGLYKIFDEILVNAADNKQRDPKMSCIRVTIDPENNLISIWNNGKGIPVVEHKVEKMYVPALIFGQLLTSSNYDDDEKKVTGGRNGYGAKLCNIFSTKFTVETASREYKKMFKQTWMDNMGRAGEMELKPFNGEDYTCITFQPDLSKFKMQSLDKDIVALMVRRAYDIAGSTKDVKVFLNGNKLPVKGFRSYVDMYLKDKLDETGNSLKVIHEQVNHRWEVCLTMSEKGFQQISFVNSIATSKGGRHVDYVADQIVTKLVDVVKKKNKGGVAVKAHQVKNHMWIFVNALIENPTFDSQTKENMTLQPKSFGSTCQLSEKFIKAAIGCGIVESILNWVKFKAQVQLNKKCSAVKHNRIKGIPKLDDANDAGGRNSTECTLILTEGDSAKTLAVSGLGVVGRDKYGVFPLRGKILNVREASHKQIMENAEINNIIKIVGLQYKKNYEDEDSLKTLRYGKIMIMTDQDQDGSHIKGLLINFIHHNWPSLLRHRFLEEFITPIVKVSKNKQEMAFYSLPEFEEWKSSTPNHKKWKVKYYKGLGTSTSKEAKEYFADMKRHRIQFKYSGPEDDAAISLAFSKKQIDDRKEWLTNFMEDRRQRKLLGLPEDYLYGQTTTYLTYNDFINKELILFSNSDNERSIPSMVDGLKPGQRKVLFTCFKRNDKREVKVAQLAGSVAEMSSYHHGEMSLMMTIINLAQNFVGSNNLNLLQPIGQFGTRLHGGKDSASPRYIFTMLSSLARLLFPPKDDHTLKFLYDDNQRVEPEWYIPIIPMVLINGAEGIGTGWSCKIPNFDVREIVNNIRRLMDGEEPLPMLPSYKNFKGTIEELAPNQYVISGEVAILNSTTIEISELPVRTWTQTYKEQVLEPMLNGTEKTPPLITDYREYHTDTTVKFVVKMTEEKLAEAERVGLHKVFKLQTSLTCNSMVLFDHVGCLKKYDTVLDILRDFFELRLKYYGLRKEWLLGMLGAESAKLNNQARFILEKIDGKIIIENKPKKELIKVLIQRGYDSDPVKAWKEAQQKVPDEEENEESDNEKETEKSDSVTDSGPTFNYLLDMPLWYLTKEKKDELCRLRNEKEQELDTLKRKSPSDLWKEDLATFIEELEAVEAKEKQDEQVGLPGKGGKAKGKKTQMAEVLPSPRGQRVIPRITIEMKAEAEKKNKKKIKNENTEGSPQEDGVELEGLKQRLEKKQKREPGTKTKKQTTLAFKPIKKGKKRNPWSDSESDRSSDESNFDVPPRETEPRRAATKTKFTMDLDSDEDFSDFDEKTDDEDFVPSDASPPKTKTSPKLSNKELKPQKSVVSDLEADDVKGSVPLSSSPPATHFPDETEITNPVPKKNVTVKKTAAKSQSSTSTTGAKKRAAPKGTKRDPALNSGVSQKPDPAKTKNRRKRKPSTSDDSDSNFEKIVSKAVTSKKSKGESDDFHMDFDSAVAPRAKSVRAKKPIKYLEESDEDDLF
For experiment [2], the target named is T1, DNA topoisomerase 1 (Homo sapiens) (UniProt P11387).
T1 sequence (whole entry): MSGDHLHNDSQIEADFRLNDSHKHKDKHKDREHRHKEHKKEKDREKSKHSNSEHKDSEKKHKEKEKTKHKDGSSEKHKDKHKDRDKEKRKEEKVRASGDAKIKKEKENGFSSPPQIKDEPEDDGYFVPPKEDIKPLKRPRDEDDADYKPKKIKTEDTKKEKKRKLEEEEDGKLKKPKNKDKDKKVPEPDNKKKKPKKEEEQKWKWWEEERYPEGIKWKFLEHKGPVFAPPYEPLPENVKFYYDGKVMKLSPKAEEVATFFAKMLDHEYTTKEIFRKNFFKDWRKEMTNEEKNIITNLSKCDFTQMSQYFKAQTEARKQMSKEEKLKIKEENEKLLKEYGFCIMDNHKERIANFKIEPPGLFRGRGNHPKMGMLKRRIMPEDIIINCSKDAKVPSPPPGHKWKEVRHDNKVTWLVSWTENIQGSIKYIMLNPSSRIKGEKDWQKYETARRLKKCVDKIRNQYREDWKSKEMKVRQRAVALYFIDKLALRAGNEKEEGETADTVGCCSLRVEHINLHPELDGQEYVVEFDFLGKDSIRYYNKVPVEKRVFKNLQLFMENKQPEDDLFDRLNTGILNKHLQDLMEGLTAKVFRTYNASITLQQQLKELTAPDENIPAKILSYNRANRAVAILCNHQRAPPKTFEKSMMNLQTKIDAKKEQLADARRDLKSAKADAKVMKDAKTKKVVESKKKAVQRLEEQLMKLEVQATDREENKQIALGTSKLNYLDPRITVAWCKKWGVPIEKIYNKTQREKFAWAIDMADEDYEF
Description: Inhibition of recombinant human topoisomerase 1 assessed as relaxation of supercoiled plasmid pBR322 DNA at 100 uM by agarose gel electrophoresis (reference value: 90.6%).

In another experiment the test system is T47D. Description: Antiproliferative activity against human T47D cells after 72 hrs by EZ-Cytox colorimetric assay. It is filed as functional, cell-based.
A further experiment relates to DU-145. Description: Antiproliferative activity against human DU-145 cells after 72 hrs by EZ-Cytox colorimetric assay. Format: functional, cell-based. The following applies: DU-145, 72 h.
The target of experiment [3] is T1, DNA topoisomerase 1 (Homo sapiens). Description: Inhibition of recombinant human topoisomerase 1 assessed as relaxation of supercoiled plasmid pBR322 DNA at 20 uM by agarose gel electrophoresis (reference value: 40.4%).
Experiment [4] concerns the target DNA topoisomerase 2-alpha (Homo sapiens) (UniProt P11388). Description: Inhibition of recombinant human topoisomerase 2alpha assessed as relaxation of supercoiled plasmid pBR322 DNA at 100 uM by agarose gel electrophoresis (reference value: 82.2%).
Experiment [5] deals with T1, DNA topoisomerase 1 (Homo sapiens). Description: Inhibition of recombinant human topoisomerase 1 assessed as relaxation of supercoiled plasmid pBR322 DNA at 100 uM by agarose gel electrophoresis (reference value: 83.2%).
Experiment [6] addresses DNA topoisomerase 2-alpha (Homo sapiens) (UniProt P11388). Description: Inhibition of recombinant human topoisomerase 2alpha assessed as relaxation of supercoiled plasmid pBR322 DNA at 20 uM by agarose gel electrophoresis (reference value: 48.4%).
In experiment [7] the target is T1, DNA topoisomerase 1 (Homo sapiens). Description: Inhibition of recombinant human topoisomerase 1 assessed as relaxation of supercoiled plasmid pBR322 DNA at 20 uM by agarose gel electrophoresis (reference value: 38.3%).
Experiment [8] has the same target. The experiment in a line: Inhibition of recombinant human topoisomerase 1 assessed as relaxation of supercoiled plasmid pBR322 DNA at 100 uM by agarose gel electrophoresis (reference value: 81.9%).
The target of experiment [9] is DNA topoisomerase 2-alpha (Homo sapiens) (UniProt P11388). The experiment in a line: Inhibition of recombinant human topoisomerase 2alpha assessed as relaxation of supercoiled plasmid pBR322 DNA at 100 uM by agarose gel electrophoresis (reference value: 81%).

Take `OC1c2ccccc2-c2nc(-c3ccc(Br)cc3)cc(-c3ccccc3)c21` (stereo not given): the IC50 is greater than 50 µM in the experiment on HeLa, greater than 50 µM in the experiment on HCT-15, 28.7 µM in the experiment on T47D and 2.11 µM in the experiment with DU-145. The inhibition in [1] stood at 0%; in experiment [2], 10.5%.
For `OC1c2ccccc2-c2nc(-c3cccc(Br)c3)cc(-c3ccccc3)c21` (stereo not given), the IC50 in the experiment on HeLa was greater than 50 µM; in the experiment with HCT-15 it was greater than 50 µM; in the experiment with T47D, greater than 50 µM; in the experiment with DU-145, 43.2 µM. The inhibition in experiment [1] was 0%; in experiment [2] it was 8.6%.
For `O=C1c2ccccc2-c2nc(-c3cccc(F)c3)cc(-c3ccccc3)c21`, the IC50 in the experiment with HeLa, with HCT-15, with T47D and in the experiment with DU-145 was greater than 50 µM each time. Besides, the inhibition in [3] was 0%; in [4], 0%; in experiment [5] it was 34.2%.
For the compound `COc1cccc2c1C(=O)c1c(O)c3c(c(O)c1C2=O)C[C@@](O)(C(=O)CO)C[C@@H]3O[C@H]1C[C@H](N)[C@H](O)[C@H](C)O1` [DOXORUBICIN HYDROCHLORIDE], the IC50 in the experiment on HeLa came out at 1.36 µM; with HCT-15 it was 136 µM; with T47D, 1.48 µM; in the experiment on DU-145, 2.99 µM.
Consider `OC1c2ccccc2-c2nc(-c3ccccc3Cl)cc(-c3ccccc3)c21` (stereo not given), for which the IC50 in the experiment with HeLa came to 10.4 µM; in the experiment on HCT-15 it was 3.37 µM; in the experiment on T47D, 1.48 µM; with DU-145, 0.41 µM. Further, the inhibition in [1] came to 0%; in experiment [2], 7.6%.
Turning to `O=C1c2ccccc2-c2nc(-c3ccccc3Br)cc(-c3ccccc3)c21`, the IC50 with HeLa is greater than 50 µM; with HCT-15 it was greater than 50 µM; in the experiment with T47D, greater than 50 µM; in the experiment with DU-145, 8.42 µM. Further, the inhibition in [3] was found to be 0%; in [6], 60.4%; in [4], 93.4%; in experiment [5], 82.9%.
Regarding `O=C1c2ccccc2-c2nc(-c3ccccc3Cl)cc(-c3ccccc3)c21`, the IC50 in the experiment with HeLa, with HCT-15, in the experiment on T47D and in the experiment on DU-145 was greater than 50 µM each time. Besides, the inhibition stood at 0% in experiment [3], 71.8% in experiment [6], 93.3% in experiment [4] and 66.7% in experiment [5].
In the case of `O=C1c2ccccc2-c2nc(-c3ccc(OC(F)(F)F)cc3)cc(-c3ccccc3)c21`, the results for the inhibition in [7], in [8] and in [9] were 3.7%, 34.3% and 6.5%, respectively. In addition, the IC50 with HeLa stood at 35.5 µM; in the experiment with HCT-15, 9.7 µM; in the experiment with T47D, 2.69 µM; in the experiment with DU-145 it was 9.63 µM.
For the compound `OC1c2ccccc2-c2nc(-c3ccc(F)cc3)cc(-c3ccccc3)c21` (stereo not given), the IC50 in the experiment with HeLa, with HCT-15, in the experiment on T47D and with DU-145 was greater than 50 µM throughout. The inhibition in [1] amounted to 0%; in [2], 7.1%.
In the case of `O=C1c2ccccc2-c2nc(-c3cccc(Br)c3)cc(-c3ccccc3)c21`, the half-maximal inhibitory concentration (IC50) in the experiment with HeLa worked out at 20.2 µM; with HCT-15 it was 17.9 µM; in the experiment on T47D it was 28 µM; in the experiment with DU-145, 9.48 µM. Besides, the inhibition in experiment [3] came out at 0%; in [6], 5.3%; in [4], 83.8%; in experiment [5], 82.9%.
For the compound `O=C1c2ccccc2-c2nc(-c3ccc(Cl)cc3)cc(-c3ccccc3)c21`, the IC50 is greater than 50 µM with HeLa, greater than 50 µM in the experiment with HCT-15, greater than 50 µM in the experiment with T47D and 5.76 µM in the experiment with DU-145. For the same compound, the inhibition was found to be 0% in experiment [3], 60% in [6], 91.3% in experiment [4] and 80.4% in [5].
With `OC1c2ccccc2-c2nc(-c3ccccc3Br)cc(-c3ccccc3)c21` (stereo not given), the IC50 was determined as 16 µM in the experiment with HeLa, 7.03 µM with HCT-15, 1.55 µM in the experiment on T47D and 6.48 µM with DU-145. Further, the inhibition stood at 0.2% in experiment [1] and 12.6% in [2].
In the case of `OC1c2ccccc2-c2nc(-c3cccc(F)c3)cc(-c3ccccc3)c21` (stereo not given), the IC50 in the experiment on HeLa, with HCT-15, in the experiment with T47D and in the experiment with DU-145 was greater than 50 µM throughout. Further, the inhibition in experiment [1] was determined as 0%; in experiment [2], 6.1%.
Regarding `O=C1c2ccccc2-c2nc(-c3cccc(OC(F)(F)F)c3)cc(-c3ccccc3)c21`, the inhibition in experiment [7] amounted to 8.5%; in experiment [8], 100%; in [9], 0.5%. In addition, the IC50 with HeLa was greater than 50 µM; in the experiment with HCT-15 it was 27.6 µM; in the experiment on T47D, 16.8 µM; in the experiment with DU-145 it was 17.8 µM.
On to `OC1c2ccccc2-c2nc(-c3ccc(Cl)cc3)cc(-c3ccccc3)c21` (stereo not given), for which the IC50 with HeLa is greater than 50 µM; with HCT-15, greater than 50 µM; in the experiment on T47D it was greater than 50 µM; in the experiment with DU-145, 35.1 µM. The values for the inhibition in [1] and in experiment [2] were 0% and 6.3%, respectively.
On to `O=C1c2ccccc2-c2nc(-c3ccc(F)cc3)cc(-c3ccccc3)c21`, for which the IC50 in the experiment on HeLa was greater than 50 µM; with HCT-15, 33.3 µM; in the experiment with T47D it was greater than 50 µM; in the experiment with DU-145 it was 20.7 µM. In addition, the inhibition in [3] stood at 0%; in [6] it was 2.5%; in experiment [4], 36.9%; in [5], 34.7%.
For the compound `O=C1c2ccccc2-c2nc(-c3cccc(Cl)c3)cc(-c3ccccc3)c21`, the IC50 in the experiment on HeLa was greater than 50 µM; in the experiment on HCT-15, 23.4 µM; in the experiment with T47D, greater than 50 µM; in the experiment on DU-145, 14.4 µM. For the same compound, the inhibition in [3] stood at 0%; in experiment [6] it was 89.2%; in [4], 98.1%; in [5], 85.7%.
In the case of `O=C1c2ccccc2-c2nc(-c3ccccc3OC(F)(F)F)cc(-c3ccccc3)c21`, the figures for the inhibition in experiment [7], in experiment [8] and in experiment [9] were 0%, 35% and 0.6%, respectively. Moreover, the IC50 in the experiment on HeLa is greater than 50 µM; in the experiment on HCT-15, 14.7 µM; in the experiment on T47D, greater than 50 µM; with DU-145, 10.7 µM.
On to `O=C1c2ccccc2-c2nc(-c3ccccc3F)cc(-c3ccccc3)c21`, for which the IC50 was greater than 50 µM in the experiment with HeLa, 49.2 µM in the experiment with HCT-15, greater than 50 µM with T47D and greater than 50 µM in the experiment with DU-145. For the same compound, the inhibition was 0% in experiment [4] and 26.7% in experiment [5].
For `OC1c2ccccc2-c2nc(-c3ccccc3F)cc(-c3ccccc3)c21` (stereo not given), the IC50 in the experiment with HeLa, in the experiment with HCT-15, with T47D and with DU-145 was greater than 50 µM each time. Moreover, the results for the inhibition in experiment [1] and in [2] were 0% and 6.7%, respectively.
Turning to `OC1c2ccccc2-c2nc(-c3cccc(Cl)c3)cc(-c3ccccc3)c21` (stereo not given), the IC50 in the experiment on HeLa, in the experiment with HCT-15, with T47D and in the experiment with DU-145 was greater than 50 µM throughout. Further, the inhibition in [1] came out at 0%; in [2] it was 7.6%.
